This passage reports EC50 results from article PMC12712055, “3D-MINFLUX nanoscopy reveals distinct allosteric mechanisms for activation and modulation of PIEZO1 by Yoda1” (Nature Communications, 2025).

SMILES strings stand for the structures. pEC50: −log10 of the molar value.

What all share (assay): calcium imaging (genetically encoded Ca2+ indicator), peak F/F0
Common to all, as to type: cell-based

Assay [1] concerns the target T1, mouse PIEZO1 (PIEZO1-mScarlet / PIEZO1-ALFA-mGL) (Mus musculus, UniProt E2JF22, A2094W).
T1 construct: full-length; C-terminal mScarlet (SG linker), or ALFA tag inserted after H86 plus C-terminal mGreenLantern (SG linker); transiently expressed in N2a-P1KO (mouse Neuro-2a PIEZO1-knockout) cells; homotrimer

Assay [2] has as its target T2, mouse PIEZO1 (PIEZO1-mScarlet / PIEZO1-ALFA-mGL) (Mus musculus, UniProt E2JF22).
T2 construct: full-length; C-terminal mScarlet (SG linker), or ALFA tag inserted after H86 plus C-terminal mGreenLantern (SG linker); transiently expressed in N2a-P1KO (mouse Neuro-2a PIEZO1-knockout) cells; homotrimer

Assay [3] concerns the target T3, mouse PIEZO1 (PIEZO1-mScarlet / PIEZO1-ALFA-mGL) (Mus musculus, UniProt E2JF22, F1715A/V1714A).
T3 construct: full-length; C-terminal mScarlet (SG linker), or ALFA tag inserted after H86 plus C-terminal mGreenLantern (SG linker); transiently expressed in N2a-P1KO (mouse Neuro-2a PIEZO1-knockout) cells; homotrimer

T2 sequence (E2JF22 whole entry): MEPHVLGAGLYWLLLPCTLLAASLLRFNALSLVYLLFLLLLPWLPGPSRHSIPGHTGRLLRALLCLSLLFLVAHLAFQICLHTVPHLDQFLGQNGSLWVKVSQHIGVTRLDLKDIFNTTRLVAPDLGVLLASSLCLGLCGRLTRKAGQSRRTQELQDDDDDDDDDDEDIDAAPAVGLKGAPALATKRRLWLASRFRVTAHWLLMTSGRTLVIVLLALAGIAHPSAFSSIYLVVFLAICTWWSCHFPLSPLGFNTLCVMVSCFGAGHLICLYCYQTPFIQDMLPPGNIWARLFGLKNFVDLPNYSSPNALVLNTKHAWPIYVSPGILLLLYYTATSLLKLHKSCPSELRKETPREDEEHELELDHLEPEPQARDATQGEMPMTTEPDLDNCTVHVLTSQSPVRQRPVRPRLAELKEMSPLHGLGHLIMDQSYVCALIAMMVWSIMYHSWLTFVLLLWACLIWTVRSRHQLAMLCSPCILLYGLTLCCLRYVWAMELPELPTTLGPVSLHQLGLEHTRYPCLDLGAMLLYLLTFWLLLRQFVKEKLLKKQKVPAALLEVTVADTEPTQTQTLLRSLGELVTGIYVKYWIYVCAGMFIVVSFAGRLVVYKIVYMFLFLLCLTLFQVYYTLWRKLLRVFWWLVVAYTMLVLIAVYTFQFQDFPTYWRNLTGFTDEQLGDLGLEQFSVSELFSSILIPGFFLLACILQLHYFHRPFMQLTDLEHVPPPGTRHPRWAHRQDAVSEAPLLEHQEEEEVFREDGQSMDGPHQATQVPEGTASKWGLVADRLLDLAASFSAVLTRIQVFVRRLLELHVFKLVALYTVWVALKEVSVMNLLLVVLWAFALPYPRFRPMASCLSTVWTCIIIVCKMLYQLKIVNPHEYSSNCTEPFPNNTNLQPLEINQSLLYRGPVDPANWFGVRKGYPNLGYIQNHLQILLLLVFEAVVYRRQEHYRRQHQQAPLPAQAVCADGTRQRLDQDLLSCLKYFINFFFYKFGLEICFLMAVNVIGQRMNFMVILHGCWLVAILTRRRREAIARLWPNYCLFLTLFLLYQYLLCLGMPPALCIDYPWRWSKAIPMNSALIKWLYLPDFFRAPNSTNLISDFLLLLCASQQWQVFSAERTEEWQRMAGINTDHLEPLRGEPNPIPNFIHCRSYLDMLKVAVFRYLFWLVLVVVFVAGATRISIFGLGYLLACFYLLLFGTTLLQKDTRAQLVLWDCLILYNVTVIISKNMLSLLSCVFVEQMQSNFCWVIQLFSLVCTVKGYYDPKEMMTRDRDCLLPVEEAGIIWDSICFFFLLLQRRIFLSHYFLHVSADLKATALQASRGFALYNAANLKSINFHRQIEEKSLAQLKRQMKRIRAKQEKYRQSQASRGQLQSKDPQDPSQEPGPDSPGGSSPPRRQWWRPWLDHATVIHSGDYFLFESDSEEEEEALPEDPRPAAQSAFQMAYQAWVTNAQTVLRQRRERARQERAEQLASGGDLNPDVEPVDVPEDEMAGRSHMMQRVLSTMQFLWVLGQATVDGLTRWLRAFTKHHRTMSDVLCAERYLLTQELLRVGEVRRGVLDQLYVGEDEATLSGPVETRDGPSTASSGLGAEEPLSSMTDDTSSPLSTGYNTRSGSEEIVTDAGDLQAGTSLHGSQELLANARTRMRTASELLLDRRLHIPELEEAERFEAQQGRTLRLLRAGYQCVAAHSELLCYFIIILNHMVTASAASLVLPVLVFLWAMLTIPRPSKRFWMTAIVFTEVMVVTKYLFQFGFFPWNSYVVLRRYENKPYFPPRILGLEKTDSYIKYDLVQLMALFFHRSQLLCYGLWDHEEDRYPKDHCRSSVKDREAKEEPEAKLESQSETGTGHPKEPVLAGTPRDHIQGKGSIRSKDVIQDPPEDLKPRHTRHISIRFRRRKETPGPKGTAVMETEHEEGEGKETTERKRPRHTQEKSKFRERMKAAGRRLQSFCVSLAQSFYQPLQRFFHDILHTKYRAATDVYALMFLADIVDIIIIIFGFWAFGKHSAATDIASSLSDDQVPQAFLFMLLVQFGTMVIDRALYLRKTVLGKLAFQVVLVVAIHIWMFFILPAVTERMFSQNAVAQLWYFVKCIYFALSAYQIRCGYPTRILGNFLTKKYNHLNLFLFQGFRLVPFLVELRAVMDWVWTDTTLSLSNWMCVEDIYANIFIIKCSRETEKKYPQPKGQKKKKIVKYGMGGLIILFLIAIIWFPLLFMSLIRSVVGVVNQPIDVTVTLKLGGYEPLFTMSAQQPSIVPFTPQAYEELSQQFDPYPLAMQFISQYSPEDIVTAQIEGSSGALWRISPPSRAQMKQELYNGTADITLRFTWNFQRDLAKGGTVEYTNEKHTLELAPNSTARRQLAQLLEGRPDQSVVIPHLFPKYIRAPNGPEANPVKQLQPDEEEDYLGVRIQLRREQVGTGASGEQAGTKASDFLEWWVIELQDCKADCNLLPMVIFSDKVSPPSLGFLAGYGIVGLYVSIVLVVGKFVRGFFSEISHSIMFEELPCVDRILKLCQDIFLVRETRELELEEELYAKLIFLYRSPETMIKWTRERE
T1 sequence (E2JF22 whole entry A2094W): as the sequence (E2JF22 whole entry) above, with A2094W counted along it
T3 sequence (E2JF22 whole entry V1714A/F1715A): as the sequence (E2JF22 whole entry) above, with V1714A, F1715A counted along it

One may read the pEC50 as −log10 of the EC50, conventionally taken in molar units. In the case of `O=C(O)c1ccc(-c2nnc(SCc3c(Cl)cccc3Cl)s2)cc1` [Yoda2], the negative-log EC50 (pEC50) in assay [1] was 5.15; in assay [2], 7.52; in assay [3] it was 7.17.
